Key:
Assay type in all cases: in vivo
ABUTH [1] = experiment: Pre-emergence herbicidal activity, glasshouse pot test; settings: rate 1000 g/Ha, evaluated after 13 days, scale 0-5
In short: (§1)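 Pre-emergence spray, one day post-sowing; vehicle acetone/water (50:50) + 0.5% Tween 20, aqueous dilution. Glasshouse 24/16 °C, 14 h light, 65% RH, watering twice daily. Score at 13 d on 0–5 scale, 5 = total damage.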

ALOMY [2] = experiment: as above; settings: rate 1000 g/Ha, evaluated after 13 days, scale 0-5
In short: as §1

AMARE [3] = experiment: as above; settings: rate 1000 g/Ha, evaluated after 13 days, scale 0-5
In short: as §1

ECHCG [4] = experiment: as above; settings: rate 1000 g/Ha, evaluated after 13 days, scale 0-5
In short: as §1

SETFA [5] = experiment: as above; settings: rate 1000 g/Ha, evaluated after 13 days, scale 0-5
In short: as §1

ZEAMX [6] = experiment: as above; settings: rate 1000 g/Ha, evaluated after 13 days, scale 0-5
In short: as §1

ABUTH [7] = experiment: Post-emergence herbicidal activity, glasshouse pot test; settings: Abutilon theophrasti; application post-emergence; rate 1000 g/Ha; evaluated after 13 days
In short: (§2)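 Damage was rated 0-5 (5 = total) 13 days after a post-emergence spray of acetone/water (50:50) plus 0.5% Tween 20 formulation. Plants were sprayed at 8 days' growth and kept at 24/16° C, 14 h light, 65% humidity, watered twice daily.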

ALOMY [8] = experiment: as above; settings: Alopecurus myosuroides; application post-emergence; rate 1000 g/Ha; evaluated after 13 days
In short: as §2

AMARE [9] = experiment: as above; settings: Amaranthus retroflexus; application post-emergence; rate 1000 g/Ha; evaluated after 13 days
In short: as §2

ECHCG [10] = experiment: as above; settings: Echinochloa crus-galli; application post-emergence; rate 1000 g/Ha; evaluated after 13 days
In short: as §2

SETFA [11] = experiment: as above; settings: Setaria faberi; application post-emergence; rate 1000 g/Ha; evaluated after 13 days
In short: as §2

ZEAMX [12] = experiment: as above; settings: Zea mays; application post-emergence; rate 1000 g/Ha; evaluated after 13 days
In short: as §2

| SMILES | ABUTH damage score, application pre-emergence (ABUTH [1]) | ALOMY damage score, application pre-emergence (ALOMY [2]) | AMARE damage score, application pre-emergence (AMARE [3]) | ECHCG damage score, application pre-emergence (ECHCG [4]) | SETFA damage score, application pre-emergence (SETFA [5]) | ZEAMX damage score, application pre-emergence (ZEAMX [6]) | Post-emergence herbicidal activity ABUTH (damage score 0-5) (ABUTH [7]) | Post-emergence herbicidal activity ALOMY (damage score 0-5) (ALOMY [8]) | Post-emergence herbicidal activity AMARE (damage score 0-5) (AMARE [9]) | Post-emergence herbicidal activity ECHCG (damage score 0-5) (ECHCG [10]) | Post-emergence herbicidal activity SETFA (damage score 0-5) (SETFA [11]) | Post-emergence herbicidal activity ZEAMX (damage score 0-5) (ZEAMX [12]) |
| --- | --- | --- | --- | --- | --- | --- | --- | --- | --- | --- | --- | --- |
| CON1C(=O)N(c2cc(C(F)(F)F)ccn2)C(O)[C@@H]1C (mixture of isomers) [Compound A3, (4R,5S)-4-hydroxy-1-methoxy-5-methyl-3-[4-(trifluoromethyl)-2-pyridyl]imidazolidin-2-one and (4S,5S)-4-hydroxy-1-methoxy-5-methyl-3-[4-(trifluoromethyl)-2-pyridyl]imidazolidin-2-one] | 4 | 3 | 5 | 5 | 5 | 3 | 5 | 5 | 5 | 5 | 5 | 5 |
| CON1C(=O)N(c2cc(C(F)(F)F)ccn2)C(O)[C@H]1C (mixture of isomers) [Compound A4, (4R,5R)-4-hydroxy-1-methoxy-5-methyl-3-[4-(trifluoromethyl)-2-pyridyl]imidazolidin-2-one and (4S,5R)-4-hydroxy-1-methoxy-5-methyl-3-[4-(trifluoromethyl)-2-pyridyl]imidazolidin-2-one] | 5 | 4 | 5 | 5 | 5 | 3 | 5 | 5 | 5 | 5 | 5 | 5 |
| C[C@H]1C(O)N(c2cc(C(F)(F)F)ccn2)C(=O)N1C (mixture of isomers) [Compound A37, (4R,5S)-4-hydroxy-1,5-dimethyl-3-[4-(trifluoromethyl)-2-pyridyl]imidazolidin-2-one and (4S,5S)-4-hydroxy-1,5-dimethyl-3-[4-(trifluoromethyl)-2-pyridyl]imidazolidin-2-one] | 5 | 4 | 5 | 5 | 4 | 3 | 5 | 5 | 5 | 5 | 5 | 4 |
| CCOC1C(O)N(c2cc(C(F)(F)F)ccn2)C(=O)N1C (racemic) [Compound A6, 5-ethoxy-4-hydroxy-1-methyl-3-[4-(trifluoromethyl)-2-pyridyl]imidazolidin-2-one] | 5 | 4 | 5 | 4 | 5 | 2 | 5 | 5 | 5 | 5 | 5 | 2 |
| COCC1C(O)N(c2cc(C(F)(F)F)ccn2)C(=O)N1C (racemic) [Compound A54] | 5 | 3 | 5 | 2 | 2 | 0 | 5 | 5 | 5 | 5 | 5 | 4 |
| CC1C(O)N(c2ccc(Cl)cn2)C(=O)N1C (single isomer, unassigned) [Compound A26] | 4 | 2 | 3 | 4 | 4 | 2 | 4 | 1 | 3 | 1 | 1 | 1 |
| Cc1ccnc(N2C(=O)N(C)C(C)C2O)c1 (single isomer, unassigned) [Compound A27] | 4 | 3 | 5 | 4 | 4 | 3 | 5 | 3 | 5 | 3 | 3 | 3 |
| CCC1C(O)N(c2cc(C(F)(F)F)ccn2)C(=O)N1OC (single isomer, unassigned) [Compound A28] | 3 | 4 | 5 | 4 | 5 | 2 | 4 | 5 | 4 | 5 | 5 | 2 |
| CC1C(O)N(c2cc(C(C)(C)C)ccn2)C(=O)N1C (single isomer, unassigned) [Compound A30] | 5 | 4 | 5 | 5 | 5 | 2 | 5 | 5 | 5 | 5 | 5 | 3 |
| Cc1cnc(N2C(=O)N(C)C(C)C2O)cc1C(F)(F)F (single isomer, unassigned) [Compound A51] | 5 | 4 | 5 | 5 | 4 | 3 | 5 | 5 | 5 | 5 | 5 | 5 |
| CON1C(=O)N(c2cc(C(F)(F)F)c(Br)cn2)C(O)C1C (single isomer, unassigned) [Compound A55] | 5 | 4 | 5 | 4 | 4 | 2 | 5 | 5 | 5 | 5 | 5 | 4 |
| CC(=O)Nc1cnc(N2C(=O)N(C)C(C)C2O)cc1C(F)(F)F (single isomer, unassigned) [Compound A56] | 5 | 2 | 5 | 1 | 1 | 0 | 5 | 4 | 5 | 3 | 2 | 1 |

Reference: US11608323B2 (SYNGENTA LIMITED, priority 2013, dated 2023)
